This note sets out measurements from patent US9072741B2, “Methods of treating liver fibrosis and pre-cirrhosis with epidermal growth factor receptor inhibitors” (The General Hospital Corporation, priority 2009, dated 2015).

The structures appear in SMILES notation.

The subject of this test is DEN-induced liver fibrosis/pre-cirrhosis. The test is described as follows: DEN-treated rats, treatment begun at 8, 12 or 15 weeks: Ishak score. The test is classed as in vivo, male Wistar rats. As to the method:
FIG. 8B is a bar graph depicting Ishak scores in male Wistar rats receiving weekly intraperitoneal injections of 50 mg/kg DEN for 18 weeks and vehicle only (n=8) or 2 mg/kg gefitnib (n=8) beginning at either 8, 12, or 15 weeks. *, significant.
Male Wistar rats received weekly intraperitoneal injections of DEN (50 mg/kg) for 16 weeks. Rats received vehicle control or gefitinib (2 mg/kg) daily beginning at either 8, 12, or 15 weeks and lasting until 18 weeks. To assess the extent of liver disease at the start of each treatment, a subgroup of rats were sacrificed after a two-week washout of DEN and the liver was harvested and processed for analysis. Masson's trichrome stains of liver sections from each animal were analyzed by a blinded pathologist. After 8 weeks and 12 weeks of DEN administration, no macroscopic findings were observed on the surface of the liver (FIG. 8A). […] After 15 weeks of DEN administration, the rats had progressed to late stage cirrhosis which could be observed macroscopically on the surface of the liver (FIG. 8A) as well as microscopically. Rats receiving vehicle or gefitinib were sacrificed at 18 weeks after a two-week washout of DEN. The liver was harvested and processed for analysis. Masson's trichrome stains of liver sections from each animal were scored by a blinded pathologist by the method of Ishak. […]

Regarding `COc1cc2ncnc(Nc3ccc(F)c(Cl)c3)c2cc1OCCCN1CCOCC1` [gefitinib, 4-Quinazolinamine, N-(3-chloro-4-fluorophenyl)-7-methoxy-6-(3-(4-morpholinyl)propoxy)], the “progression of liver fibrosis/pre-cirrhosis (Ishak)” value was “inhibited the progression of liver fibrosis/pre-cirrhosis” (2 mg/kg daily beginning at 8 weeks until 18 weeks) and “inhibited the progression of liver fibrosis/pre-cirrhosis” (2 mg/kg daily beginning at 12 weeks until 18 weeks).
